Assays:
[1] = target: T1, Induced myeloid leukemia cell differentiation protein Mcl-1 (Homo sapiens, UniProt Q07820); test: Binding affinity to Mcl-1 (unknown origin)
[2] = target: T2, Bcl-xL/BH3-interacting domain death agonist (Homo sapiens, UniProt Q07817); test: Inhibition of Bcl-xL/Bid (unknown origin) by fluorescence polarization assay; type: protein assay
[3] = target: T3, Induced myeloid leukemia cell differentiation protein Mcl-1/BH3-interacting domain death agonist (Homo sapiens, UniProt Q07820); test: Inhibition of Mcl-1/Bid (unknown origin) by fluorescence polarization assay; type: protein assay
BCL2A1/BID [4] = target: T4, BCL2A1/BID (Homo sapiens, UniProt Q16548); test: Binding affinity to Bfl-1/Bid (unknown origin) incubated for 3 hrs by fluorescence polarization-based binding assay; type: protein assay
T4 sequence (Q16548 whole entry): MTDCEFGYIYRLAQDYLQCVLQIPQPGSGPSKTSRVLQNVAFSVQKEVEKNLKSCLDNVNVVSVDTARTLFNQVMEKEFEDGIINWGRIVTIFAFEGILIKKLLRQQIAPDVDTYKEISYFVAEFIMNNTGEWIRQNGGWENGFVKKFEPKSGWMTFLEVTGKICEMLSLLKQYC
T4 sequence (P55957 whole entry): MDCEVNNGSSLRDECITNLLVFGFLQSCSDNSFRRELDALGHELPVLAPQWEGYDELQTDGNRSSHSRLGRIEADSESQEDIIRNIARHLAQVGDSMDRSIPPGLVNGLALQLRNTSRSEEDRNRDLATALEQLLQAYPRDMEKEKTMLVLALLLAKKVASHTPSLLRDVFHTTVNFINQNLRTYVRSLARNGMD

[5] = target: T3, Induced myeloid leukemia cell differentiation protein Mcl-1/BH3-interacting domain death agonist; test: Binding affinity to Mcl-1/Bid (unknown origin) incubated for 3 hrs by fluorescence polarization-based binding assay; type: protein assay
[6] = target: T2, Bcl-xL/BH3-interacting domain death agonist; test: Binding affinity to Bcl-xL/Bid (unknown origin) by fluorescence polarization assay; type: protein assay
[7] = target: T1, Induced myeloid leukemia cell differentiation protein Mcl-1; test: Binding affinity to Mcl-1 (unknown origin) assessed as inhibition constant by fluorescence polarization assay
BCL2A1/BID [8] = target: T4, BCL2A1/BID; test: Binding affinity to Bfl-1/Bid (unknown origin) by fluorescence polarization assay; type: protein assay
BCL2L2/BID [9] = target: T5, BCL2L2/BID (Homo sapiens, UniProt P55957+Q92843); test: Binding affinity to Bcl-W/Bid (unknown origin) by fluorescence polarization assay; type: protein assay
T5 sequence (Q92843 whole entry): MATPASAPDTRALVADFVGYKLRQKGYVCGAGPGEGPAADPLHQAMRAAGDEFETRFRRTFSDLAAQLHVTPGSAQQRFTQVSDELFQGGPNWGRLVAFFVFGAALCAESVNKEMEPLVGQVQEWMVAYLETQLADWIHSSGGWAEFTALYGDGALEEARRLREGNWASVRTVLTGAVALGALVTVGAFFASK
T5 sequence (P55957 whole entry): T4 sequence (P55957 whole entry)

BCL2/BID [10] = target: T6, BCL2/BID (Homo sapiens, UniProt P10415); test: Binding affinity to Bcl-2/Bid (unknown origin) by fluorescence polarization assay; type: protein assay
[11] = target: T3, Induced myeloid leukemia cell differentiation protein Mcl-1/BH3-interacting domain death agonist; test: Binding affinity to Mcl-1/Bid (unknown origin) assessed as inhibition constant by fluorescence polarization assay; type: protein assay
[12] = Inhibition of Bak/Bcl-xL (unknown origin) protein protein interaction by fluorescence polarization assay; design: species or system Homo sapiens
[13] = Binding affinity to Bak/Bcl-xL (unknown origin) protein protein interaction by fluorescence polarization assay; design: species or system Homo sapiens
MCL1-BAK1 complex [14] = target: T7, MCL1-BAK1 complex (Homo sapiens, UniProt Q07820); test: Inhibition of Bak/Mcl-1 (unknown origin) protein protein interaction by fluorescence polarization assay; type: protein-complex assay
MCF7 = test: Induction of apoptosis in Bcl-2 dependent human MCF7 cells treated for 48 hrs by Annexin V-FITC staining based flow cytometric analysis; type: functional, cell-based; conditions: MCF7, 48 h
[15] = Induction of apoptosis in Mcl-1 dependent […] cells treated for 48 hrs by Annexin V-FITC staining based flow cytometric analysis; type: functional, cell-based; conditions: Mus musculus, H22, 48 h
Bcl-xL/BAK [16] = target: T8, Bcl-xL/BAK (Homo sapiens, UniProt Q07817); test: Inhibition of Bcl-xL/Bak (unknown origin) by fluorescence polarization assay; type: protein assay
[17] = target: Induced myeloid leukemia cell differentiation protein Mcl-1/Bcl-2-like protein 11 (Homo sapiens, UniProt Q07820); test: Inhibition of Mcl-1/Bim (unknown origin) by fluorescence polarisation assay; type: protein assay
[18] = target: T3, Induced myeloid leukemia cell differentiation protein Mcl-1/BH3-interacting domain death agonist; test: Binding affinity to human N-terminal 8xHis tagged Mcl-1/5-FAM-tagged Bid (unknown origin) assessed as inhibition constant by fluorescence polarization assay; type: protein assay
[19] = target: Bcl-xL/Bcl-2-like protein 11 (Homo sapiens, UniProt Q07817); test: Binding affinity to GST-tagged Bcl-xL/5-FAM-tagged Bim (unknown origin) assessed as inhibition constant by fluorescence polarization assay; type: protein assay
BCL2/BID [20] = target: T6, BCL2/BID; test: Binding affinity to human Bcl-2 (29 to 44 residues)/5-FAM-tagged Bid (unknown origin) assessed as inhibition constant by fluorescence polarization assay; type: protein assay
Bcl-xL/BAK [21] = target: T8, Bcl-xL/BAK; test: Inhibition of Bcl-xL/Bak (unknown origin); type: protein assay
BCL2A1/BAK1 = target: T9, BCL2A1/BAK1 (Homo sapiens, UniProt Q16548+Q16611); test: Inhibition of Bfl-1/Bak (unknown origin); type: protein assay
T9 sequence (Q16611 whole entry): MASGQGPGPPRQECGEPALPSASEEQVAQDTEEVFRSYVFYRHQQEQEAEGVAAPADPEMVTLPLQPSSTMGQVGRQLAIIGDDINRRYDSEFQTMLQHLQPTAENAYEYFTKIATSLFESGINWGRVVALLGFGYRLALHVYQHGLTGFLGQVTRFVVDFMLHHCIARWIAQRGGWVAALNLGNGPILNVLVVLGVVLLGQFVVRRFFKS
T9 sequence (Q16548 whole entry): T4 sequence (Q16548 whole entry)

[22] = target: Apoptosis regulator Bcl-2/Bcl-2 homologous antagonist/killer (Homo sapiens, UniProt P10415+Q16611); test: Inhibition of Bcl-2/Bak (unknown origin); type: protein assay
MCL1-BAK1 complex [23] = target: T7, MCL1-BAK1 complex; test: Inhibition of Mcl-1/Bak (unknown origin); type: protein-complex assay
[24] = target: T3, Induced myeloid leukemia cell differentiation protein Mcl-1/BH3-interacting domain death agonist; test: Inhibition of Mcl-1/FITC-labelled Bid (unknown origin) protein protein interaction incubated for 20 to 60 mins by fluorescence polarisation binding assay
[25] = target: Apoptosis regulator Bcl-2 (Homo sapiens, UniProt P10415); test: Binding affinity to Bcl-2 (unknown origin) assessed as inhibition constant
Bcl-2-like protein 1 = Bcl-2-like protein 1 (Homo sapiens, UniProt Q07817); test: Binding affinity to Bcl-xL (unknown origin) assessed as inhibition constant
[26] = target: T1, Induced myeloid leukemia cell differentiation protein Mcl-1; test: Binding affinity to Mcl-1 (unknown origin) assessed as inhibition constant
Bcl-xL/BAK [27] = target: T8, Bcl-xL/BAK; test: Binding affinity to human Bcl-xL/Bak (unkown origin) incubated for 1 hr by fluorescence polarization assay; type: protein assay
[28] = Binding affinity to mouse Mcl-1/Bak (unkown origin) incubated for 1 hr by fluorescence polarization assay
Bcl-xL/BAK [29] = target: T8, Bcl-xL/BAK; test: Binding affinity to Bcl-xL/Bak (unknown origin) assessed as inhibition constant by fluorescence polarization assay; type: protein assay
Bcl-xL/BAK [30] = target: T8, Bcl-xL/BAK; test: Binding affinity to Bcl-xL/Bak (unknown origin) assessed as dissociation constant by ITC method; type: protein assay
MCL1-BAK1 complex [31] = target: T7, MCL1-BAK1 complex; test: Binding affinity to Mcl-1/Bak (unknown origin) assessed as inhibition constant by fluorescence polarization assay; type: protein-complex assay
[32] = target: T3, Induced myeloid leukemia cell differentiation protein Mcl-1/BH3-interacting domain death agonist; test: Inhibition of Mcl-1/Bid (unknown origin); type: protein assay
BCL2/BAD = BCL2/BAD (Homo sapiens, UniProt P10415); test: Binding affinity to Bcl-2/Bad (unknown origin) assessed as inhibition constant by fluorescence polarisation assay; type: protein assay
[33] = target: T2, Bcl-xL/BH3-interacting domain death agonist; test: Inhibition of Bcl-xL/Bid complex (unknown origin); type: protein assay
[34] = Binding affinity to Bcl-xL/Bad (unknown origin) assessed as inhibition constant by fluorescence polarisation assay; design: species or system Homo sapiens
BCL2A1/BID [35] = target: T4, BCL2A1/BID; test: Inhibition of Bfl-1/Bid (unknown origin); type: protein assay
BCL2/BID [36] = target: T6, BCL2/BID; test: Inhibition of Bcl-2/Bid (unknown origin); type: protein assay
BCL2L2/BID [37] = target: T5, BCL2L2/BID; test: Inhibition of Bcl-W/Bid (unknown origin); type: protein assay
BCL2L10/BID = BCL2L10/BID (Homo sapiens, UniProt P55957+Q9HD36); test: Inhibition of Bcl-B/Bid (unknown origin); type: protein assay
OPM-2 = test: Cytotoxicity against human OPM-2 cells assessed as cell viability; type: functional, cell-based

T8 sequence (Q07817 whole entry, one chain of several): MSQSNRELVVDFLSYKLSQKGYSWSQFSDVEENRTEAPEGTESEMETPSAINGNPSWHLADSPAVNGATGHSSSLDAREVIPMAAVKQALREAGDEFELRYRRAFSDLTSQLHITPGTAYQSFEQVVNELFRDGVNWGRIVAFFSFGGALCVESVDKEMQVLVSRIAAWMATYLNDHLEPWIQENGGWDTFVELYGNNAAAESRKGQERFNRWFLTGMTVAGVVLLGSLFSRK
T2 sequence (Q07817 whole entry, one chain of several, the tested form may be a part): as the sequence (Q07817 whole entry, one chain of several) above
T7 sequence (Q07820 whole entry, one chain of several): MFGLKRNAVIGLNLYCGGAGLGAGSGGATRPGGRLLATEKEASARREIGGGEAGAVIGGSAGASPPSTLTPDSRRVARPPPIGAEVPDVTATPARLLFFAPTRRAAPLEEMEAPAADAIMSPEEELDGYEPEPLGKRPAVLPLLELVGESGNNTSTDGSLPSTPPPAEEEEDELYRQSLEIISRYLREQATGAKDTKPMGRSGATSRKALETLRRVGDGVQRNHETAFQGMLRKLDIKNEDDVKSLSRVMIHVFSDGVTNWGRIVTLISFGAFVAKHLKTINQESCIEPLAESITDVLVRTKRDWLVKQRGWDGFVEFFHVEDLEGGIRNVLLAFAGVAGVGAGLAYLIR
T1 sequence (Q07820 whole entry, the tested form may be a part): as the sequence (Q07820 whole entry, one chain of several) above
T3 sequence (Q07820 whole entry, one chain of several, the tested form may be a part): as the sequence (Q07820 whole entry, one chain of several) above
T6 sequence (P10415 whole entry, one chain of several, the tested form may be a part): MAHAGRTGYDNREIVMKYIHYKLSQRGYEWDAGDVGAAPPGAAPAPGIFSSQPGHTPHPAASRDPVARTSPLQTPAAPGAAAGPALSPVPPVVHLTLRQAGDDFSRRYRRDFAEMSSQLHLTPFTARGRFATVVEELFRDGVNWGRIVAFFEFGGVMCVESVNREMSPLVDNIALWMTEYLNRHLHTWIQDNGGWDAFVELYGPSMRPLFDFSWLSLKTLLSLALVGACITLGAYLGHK
Chain of BCL2/BAD (Q92934 whole entry, the tested form may be a part): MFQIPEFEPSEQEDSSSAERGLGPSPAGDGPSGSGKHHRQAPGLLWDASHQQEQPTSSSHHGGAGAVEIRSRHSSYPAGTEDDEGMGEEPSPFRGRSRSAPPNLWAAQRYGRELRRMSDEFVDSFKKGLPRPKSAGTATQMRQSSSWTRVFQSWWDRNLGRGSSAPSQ
Chain of BCL2/BAD (P10415 whole entry, the tested form may be a part): as the sequence (P10415 whole entry, one chain of several, the tested form may be a part) above
Chain of BCL2L10/BID (Q9HD36 whole entry, one chain of several): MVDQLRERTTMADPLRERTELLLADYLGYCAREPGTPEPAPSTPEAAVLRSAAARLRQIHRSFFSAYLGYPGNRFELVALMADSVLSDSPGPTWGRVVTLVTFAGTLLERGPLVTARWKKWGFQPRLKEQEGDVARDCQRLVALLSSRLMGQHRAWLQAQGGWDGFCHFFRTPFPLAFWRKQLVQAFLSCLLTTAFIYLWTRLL
Chain of Bcl-xL/Bcl-2-like protein 11 (Q07817 whole entry, the tested form may be a part): as the sequence (Q07817 whole entry, one chain of several) above
Chain of Bcl-xL/Bcl-2-like protein 11 (O43521 whole entry, further chain, the tested form may be a part): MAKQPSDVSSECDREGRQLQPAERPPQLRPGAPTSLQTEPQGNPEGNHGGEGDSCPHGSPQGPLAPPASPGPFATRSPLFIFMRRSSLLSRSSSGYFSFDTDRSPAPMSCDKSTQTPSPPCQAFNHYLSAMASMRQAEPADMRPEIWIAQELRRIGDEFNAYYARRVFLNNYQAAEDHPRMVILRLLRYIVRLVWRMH
Chain of Bcl-2-like protein 1 (Q07817 whole entry): as the sequence (Q07817 whole entry, one chain of several) above
Chain of Induced myeloid leukemia cell differentiation protein Mcl-1/Bcl-2-like protein 11 (Q07820 whole entry, the tested form may be a part): as the sequence (Q07820 whole entry, one chain of several) above
Chain of Induced myeloid leukemia cell differentiation protein Mcl-1/Bcl-2-like protein 11 (O43521 whole entry, further chain, the tested form may be a part): as the sequence (O43521 whole entry, further chain, the tested form may be a part) above
Chain of Apoptosis regulator Bcl-2 (P10415 whole entry): as the sequence (P10415 whole entry, one chain of several, the tested form may be a part) above
Chain of Apoptosis regulator Bcl-2/Bcl-2 homologous antagonist/killer (P10415 whole entry, one chain of several): as the sequence (P10415 whole entry, one chain of several, the tested form may be a part) above

## CC1=C(C2=C(C)C(=O)c3c(cc(O)c(O)c3C(C)C)C2=O)C(=O)c2cc(O)c(O)c(C(C)C)c2C1=O
[1]
  Ki: 25000 nM
[2]
  IC50: 660 nM
[3]
  IC50: 25 nM

## O=C(CSc1nnc(-c2ccco2)c(-c2ccco2)n1)Nc1ccccc1
BCL2A1/BID [4]
  Ki: 4900 nM
[5]
  Ki: 3200 nM

## O=C(O)CSc1cc(NS(=O)(=O)c2cccc(Br)c2)c2ccccc2c1O
[6]
  Ki: 33000 nM
[7]
  Ki: 180 nM
BCL2A1/BID [8]
  Ki: 5330 nM
BCL2L2/BID [9]
  Ki: 8190 nM
BCL2/BID [10]
  Ki: 23800 nM
[11]
  Ki: 490 nM

## CC(C)Oc1cc(C(=O)Nc2ccc(C(=O)Nc3ccc(C(=O)O)cc3OC(C)C)nc2OC(C)C)ccc1N
[12]
  IC50: 394 nM
[13]
  Ki: 179 nM
MCL1-BAK1 complex [14]
  IC50: 10200 nM

## O=C(O)c1cc2ccccc2n1S(=O)(=O)c1ccc(OCc2cccc(Cl)c2)cc1
MCF7
  IC50: 19200 nM
[15]
  IC50: 9200 nM

## CC(C)Cc1cc(-c2ccc(-c3ccc(OCC(=O)O)cc3CC(C)C)cc2Cc2ccccc2)ccc1OCCC(=O)O
Bcl-xL/BAK [16]
  IC50: 1500 nM
[17]
  IC50: 4900 nM

## O=C(Nc1ccccc1)C1=CN=c2s/c(=C\c3cn(Cc4ccccc4F)c4ccccc34)c(=O)n2C1c1ccc(F)cc1 (stereo not drawn)
[18]
  Ki: 1050 nM
[19]
  Ki: 1640 nM
BCL2/BID [20]
  Ki: 2670 nM

## Cc1cc2c(O)c(-c3ccc4c(C(=O)NCC(C)c5ccccc5)c(O)c(O)cc4c3O)c(C)cc2c(C(=O)NCC(C)c2ccccc2)c1C (stereo not drawn)
Bcl-xL/BAK [21]
  IC50: 310 nM
BCL2A1/BAK1
  IC50: 200 nM
[22]
  IC50: 320 nM
MCL1-BAK1 complex [23]
  IC50: 620 nM

## Cc1ccc(S(=O)(=O)/N=C2\C=C(Sc3nc[nH]n3)C(=O)c3ccccc32)cc1
[24]
  IC50: 450 nM

## O=C(O)C1C2CC(Sc3ccccc3[N+](=O)[O-])C(Cl)C2c2cc(Cl)cc3c2N1CC1CC=CC31 (stereo not drawn)
[25]
  Ki: 15000 nM
Bcl-2-like protein 1
  Ki: ≥ 50000 nM
[26]
  Ki: 530 nM

## CC1=C[C@@H](/C=C(\C)c2ccc(C(=O)O)cc2)[C@]2(C(=O)O)C=C[C@@H](CCOC(=O)c3ccc(Oc4ccccc4)cc3)C[C@@H]2C1
Bcl-xL/BAK [27]
  Ki: 700 nM
[28]
  Ki: 500 nM

## COc1ccc(-c2ccc(/C=C3\SC(=S)N([C@@H](Cc4ccccc4)C(=O)O)C3=O)cn2)cc1OC
Bcl-xL/BAK [29]
  Ki: > 100000 nM
Bcl-xL/BAK [30]
  Kd: > 750000 nM
MCL1-BAK1 complex [31]
  Ki: 8000 nM

## O=C(O[C@@H]1Cc2c(O)cc(O)cc2O[C@@H]1c1cc(O)c(O)c(O)c1)c1cc(O)c(O)c(O)c1 [EPIGALOCATECHIN GALLATE]
[32]
  IC50: 920 nM
BCL2/BAD
  Ki: 490 nM
[33]
  IC50: 590 nM
[34]
  Ki: 335 nM
BCL2A1/BID [35]
  IC50: 1790 nM
BCL2/BID [36]
  IC50: 450 nM
BCL2L2/BID [37]
  IC50: 2330 nM
BCL2L10/BID
  IC50: 360 nM

## O=C(O)C(O)c1ccccc1 (stereo not drawn) [MANDELIC ACID]
OPM-2
  IC50: 19 nM
